Results taken from patent US4822606A, “Immunosuppressive synthetic peptides and analogs thereof based on retroviral envelope sequences” (Duke University, priority 1986, dated 1989).
Ends that are not written are not given here.

Experiments:
human monocytes = assay: Monocyte superoxide anion (O2^-) release; type: cell-based; conditions: WGA stimulated, peptide coupled to BSA, mean ± SE
Method: Monocytes were aliquoted into 12×75 mm polypropylene tubes (Falcon, Oxnard, CA) and incubated at 37° C. with test materials for twenty minutes. Cytochalasin E was then added to give a final concentration of 5 μg/ml. Ten minutes later 1.5 mg/ml cytochrome C was added followed immediately by wheat germ agglutinin (WGA) to a final concentration of 30 μg/ml (1). Supernatants were removed after 5 min. for determination of O2^- dismutase-inhibitable reduction of cytochrome C (2).

Immunization of rabbits = type: in vivo, rabbit
[1] = system: human lymphocytes stimulated with Con A; assay: Human lymphocyte proliferative response to Con A; type: cell-based; conditions: addition 24 hr. after Con A; coupled to BSA
Balb/3T3 fibroblasts = assay: Fibroblast proliferation, Balb/3T3; type: cell-based; conditions: 2 or 3 days, dilutions 1:20, 1:40, 1:80
Method: (§1) CKS-17 was added at concentrations of 1:20, 1:40 and 1:80 to monolayers of Balb/3T3 or NIH/3T3 fibroblasts (ca. 1/3 confluent) in 96 well tissue culture plates. The cells were grown for an addition 2-3 days and pulsed with 1.0 μCi ^3 H-thymidine./well for the final 24 hours. The culture media was removed and the cells washed once before disruption with 0.5 ml of 0.5 N NaOH. The radiolabeled nucleic acids were then harvested onto glass fibe filters as described.

[2] = system: Balb/c and NIH/Swiss splenic lymphocytes; assay: Murine two-way mixed leukocyte culture (MLC); type: cell-based; conditions: coupled to BSA; for average inhibition of murine MLC response (mean±SEM): 3 day MLC, three experiments
Method: Fifty μl RPMI containing 1×10^5 Balb/c splenic lymphocytes and 50 μl containing 1×10^5 NIH/Swiss splenic lymphocytes were added to each well of a 96 well tissue culture plate. An additional 50 μl of RPMI containing peptide or no additives was added to each well and the cultures incubated for 3 to 5 days at 37° C in humidified 5% CO^2 Cultures were pulsed for 4 hr with 0.5 μCi of ^3 H-thymidine in 50 μl of RPMI before harvesting onto glass fiber filters.

[3] = system: lymphocytes from two non-related individuals; assay: Human two-way mixed leukocyte culture (MLC); type: cell-based; conditions: four experiments, final 24 h of 6 day culture, coupled to BSA
Method: Fifty μl of RPMI containing 1×10^5 lymphocytes from each of two non-related individuals was added to each well of a 96 well tissue culture plate. An additional 50 μl of RPMI was added and cultures were incubated at 37° C. in humidified 5% CO2 for 5 days. Fifty μl of RPMI containing either peptide or no addition was added for an additional 24 hr. During the final 4 hr of incubation each well was incubated with 25 μl of RPMI containing 0.5 μCi of ^3 H-thymidine and incorporated radionucleotide determined as above.

[4] = system: human lymphocytes stimulated with Con A; assay: Human lymphocyte proliferative response to Con A; type: cell-based; conditions: coupled to BSA
Method: One hundred μl of RPMI containing 2×10^5 lymphocytes was added to each well of a 96 well tissue culture plate. […] The cultures were incubated for 72 hr at 37° C. in 5% humidified CO2, pulsed with ^3 Hthymidine (0.,5 μCi/well, 4h.) and the incorporated radioactivity determined as described above. The concentration of OKT3 antibody used was previously determined to give 75-100% of a maximal response.

[5] = system: T4^+ and T8^+ lymphocytes, B cells, NK cells and phagocytes; assay: Preliminary double-labeling studies; type: binding
murine CTLL-2 cells = assay: Murine cytotoxic T lymphocyte (CTLL-2) IL-2 dependent proliferation assay; type: cell-based; conditions: for average inhibition of CTLL-2 cell proliferation: 24 experiments; for ^3H-TdR incorporation, CPM ± SD of quadruplicate samples: 24 h; for effect upon CTLL-2 cell proliferation: peptides coupled to BSA or control BSA, same conditions as the active peptide;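 on all read-outs here: CTLL-2 cells, 4 x 10^3 per well in 96-well plates with RPMI plus 6% FBS, proliferation read as cell-bound radioactivity counted by liquid scintillation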
Method: Fifty μ1 of RPMI (6% FBS, 0% IL-2) containing 4 x 10^3 CTLL-2 cells was added to each well of a 96 well tissue culture plate (Falcon, Oxnard, CA). To each well was then added 50 μl of RPMI 1640 containing 3% human IL-2 50 μl of either RPMI or RPMI containing synthetic peptides. Cultures were then incubated for 24 hours at 37° C. in humidified 5% CO^2 Fifty μl of RPMI containing 1 μCi of ^3 H-thymidine (6.7 Ci/mmole; New England Nuclear, Boston, MA) was added to each well for the final 4 hours of cultures. Cells were collected by filtration onto glass fiber filters and incorporated radioactivity determined by liquid scintillation spectrophotometry.

human lymphocytes = assay: Binding of [^125 I]-CKS-17-BSA to cultured human lymphocytes; conditions: >1000 fold excess of unlabeled BSA conjugate
Method: Human mononuclear cells were stimulated for 3 days with PHA, washed free of lectin, cultured for 10 days with 10% of a human IL-2 preparation (electronucleonics) washed and resuspended to 5×10^6 cells/ml in phosphate-buffered-saline, pH 7.2 (PBS) containing 0.1% BSA. […] Binding was terminated and unbounded [^125 I]-CKS-17-BSA removed by rapid (30 sec.) centrifugation of the cells through oil. The cell associated radioactivity was measured using a gamma radiation counter.

NIH/3T3 fibroblasts = assay: Fibroblast proliferation, NIH/3T3; type: cell-based; conditions: 2 or 3 days, dilutions 1:20, 1:40, 1:80
Method: as §1

[6] = Expt. 1, dilution 1:40, coupled to BSA
[7] = Expt. 1, dilution 1:80, coupled to BSA
[8] = Expt. 2, dilution 1:40, coupled to BSA
[9] = Expt. 2, dilution 1:80, coupled to BSA

Sequence: LQNRRGLDLLFLKEGGL [CKS-17]
- O2^- Release (human monocytes; dilution 1:20): 6.0 ± 0.5 nmoles/5 minues/1.2 × 10^6 mon
- O2^- Release (human monocytes; dilution 1:40): 8.3 ± 0.5 nmoles/5 minues/1.2 × 10^6 mon
- antibodies elicited by immunization of rabbits (Immunization of rabbits): elicited antibodies which react with free peptide and the native viral protein
- inhibition when peptide is added 24 hr. after the mitogen [1]: comparable levels of inhibition
- effect upon ^3H-thymidine incorporation (Balb/3T3 fibroblasts): no effect
- average inhibition of murine MLC response (mean±SEM) ([2]; dilution 1:20): 94±2%
- average inhibition of murine MLC response (mean±SEM) ([2]; dilution 1:30): 74±4%
- average inhibition of murine MLC response (mean±SEM) ([2]; dilution 1:80): 48±9%
- effect on five-day murine MLC reactions ([2]; five-day MLC): blocked
- average inhibition of human two-way MLC (mean±SEM) ([3]; dilution 1:20): 92±2
- average inhibition of human two-way MLC (mean±SEM) ([3]; dilution 1:40): 64±11
- average inhibition of human two-way MLC (mean±SEM) ([3]; dilution 1:80): 18±3
- % inhibition of Con A stimulated proliferation ([4]; Expt. 1, dilution 1:10): 88%
- ^3H-TdR incorporation, CPM ± SD of quadruplicate samples ([4]; Expt. 1, dilution 1:10): 11,170 ± 3572 CPM
- % inhibition of Con A stimulated proliferation ([4]; Expt. 1, dilution 1:20): 58%
- ^3H-TdR incorporation, CPM ± SD of quadruplicate samples ([4]; Expt. 1, dilution 1:20): 38,132 ± 11,989 CPM
- % inhibition of Con A stimulated proliferation ([4]; Expt. 1, dilution 1:40): 58%
- ^3H-TdR incorporation, CPM ± SD of quadruplicate samples ([4]; Expt. 1, dilution 1:40): 38,085 ± 10,678 CPM
- % inhibition of Con A stimulated proliferation ([4]; Expt. 1, dilution 1:80): 48%
- ^3H-TdR incorporation, CPM ± SD of quadruplicate samples ([4]; Expt. 1, dilution 1:80): 46,815 ± 601 CPM
- % inhibition of Con A stimulated proliferation ([4]; Expt. 2, dilution 1:10): 66%
- ^3H-TdR incorporation, CPM ± SD of quadruplicate samples ([4]; Expt. 2, dilution 1:10): 34,601 ± 3914 CPM
- % inhibition of Con A stimulated proliferation ([4]; Expt. 2, dilution 1:20): 38%
- ^3H-TdR incorporation, CPM ± SD of quadruplicate samples ([4]; Expt. 2, dilution 1:20): 62,445 ± 3602 CPM
- % inhibition of Con A stimulated proliferation ([4]; Expt. 2, dilution 1:40): 17%
- ^3H-TdR incorporation, CPM ± SD of quadruplicate samples ([4]; Expt. 2, dilution 1:40): 83,154 ± 4422 CPM
- % inhibition of Con A stimulated proliferation ([4]; Expt. 2, dilution 1:80): 5%
- ^3H-TdR incorporation, CPM ± SD of quadruplicate samples ([4]; Expt. 2, dilution 1:80): 95,395 ± 45 CPM
- incorporation of ^3H-thymidine blocked ([4]; text: 1:20 dilution (ca. 7.5μM)): up to 88%
- cell types bound [5]: binds to T4^+ and T8^+ lymphocytes, B cells, NK cells and phagocytes
- average inhibition of CTLL-2 cell proliferation (murine CTLL-2 cells; dilution 1:20, coupled to BSA): 49.6%
- average inhibition of CTLL-2 cell proliferation (murine CTLL-2 cells; dilution 1:40, coupled to BSA): 22.0%
- average inhibition of CTLL-2 cell proliferation (murine CTLL-2 cells; dilution 1:80, coupled to BSA): 9.4%
- short term toxic effect, trypan blue dye exclusion (murine CTLL-2 cells; CTLL-2 cells, coupled to BSA): not due to either a short term toxic effect
- % inhibition of CTLL-2 proliferation (murine CTLL-2 cells; Expt. 1, dilution 1:20 (ca. 7.3 μM), coupled to BSA): 76%
- ^3H-TdR incorporation, CPM ± SD of quadruplicate samples (murine CTLL-2 cells; Expt. 1, dilution 1:20, coupled to BSA): 15,255 ± 277 CPM
- % inhibition of CTLL-2 proliferation (murine CTLL-2 cells; [6]): 34%
- ^3H-TdR incorporation, CPM ± SD of quadruplicate samples (murine CTLL-2 cells; [6]): 42,827 ± 1386 CPM
- % inhibition of CTLL-2 proliferation (murine CTLL-2 cells; [7]): 7%
- ^3H-TdR incorporation, CPM ± SD of quadruplicate samples (murine CTLL-2 cells; [7]): 60,005 ± 1425 CPM
- % inhibition of CTLL-2 proliferation (murine CTLL-2 cells; Expt. 2, dilution 1:20 (ca. 7.3 μM), coupled to BSA): 64%
- ^3H-TdR incorporation, CPM ± SD of quadruplicate samples (murine CTLL-2 cells; Expt. 2, dilution 1:20, coupled to BSA): 10,950 ± 2171 CPM
- % inhibition of CTLL-2 proliferation (murine CTLL-2 cells; [8]): 24%
- ^3H-TdR incorporation, CPM ± SD of quadruplicate samples (murine CTLL-2 cells; [8]): 23,128 ± 3288 CPM
- % inhibition of CTLL-2 proliferation (murine CTLL-2 cells; [9]): 1%
- ^3H-TdR incorporation, CPM ± SD of quadruplicate samples (murine CTLL-2 cells; [9]): 29,980 ± 3490 CPM
- incubation required for maximal inhibition of CTLL-2 cell proliferation (murine CTLL-2 cells; ca. 15 μM, coupled to BSA): 16 h
- reversal of inhibition by increasing the concentration of IL-2 twenty-fold (murine CTLL-2 cells; coupled to BSA): could not be reversed
- effect upon the CTLL-2 cells (murine CTLL-2 cells; free (unconjugated) peptide): no effect
- inhibition of [^125 I]-CKS-17-BSA binding by excess unlabelled material (human lymphocytes): binding could be inhibited
- effect upon ^3H-thymidine incorporation (NIH/3T3 fibroblasts): no effect

Sequence: PPFSLSPVPTL [SP-70]
- O2^- Release (human monocytes; dilution 1:20): 10.7 ± 0.5 nmoles/5 minues/1.2 × 10^6 mon
- O2^- Release (human monocytes; dilution 1:40): 11.6 ± 0.2 nmoles/5 minues/1.2 × 10^6 mon
- effect upon CTLL-2 cell proliferation (murine CTLL-2 cells): little or no effect

Sequence: PVMHPHGAPPNHRPWGMKNLQAIK [SP-16]
- O2^- Release (human monocytes; dilution 1:20): 9.8 ± 0.2 nmoles/5 minues/1.2 × 10^6 mon
- O2^- Release (human monocytes; dilution 1:40): 12.4 ± 0.6 nmoles/5 minues/1.2 × 10^6 mon
- effect upon CTLL-2 cell proliferation (murine CTLL-2 cells): little or no effect

Sequence: QYAAQNRRGLDLL [SP-74]
- O2^- Release (human monocytes; dilution 1:20): 10.7 ± 0.4 nmoles/5 minues/1.2 × 10^6 mon
- O2^- Release (human monocytes; dilution 1:40): 12.5 ± 0.5 nmoles/5 minues/1.2 × 10^6 mon
- effect upon CTLL-2 cell proliferation (murine CTLL-2 cells): little or no effect
